Data from patent publication US10209240B2, “Predicting human developmental toxicity of pharmaceuticals using human stem-like cells and metabolomic ratios” (STEMINA BIOMARKER DISCOVERY, INC., priority 2012, dated 2019).

Key:
WA09 hES cells [1] = assay: Phase 1 untargeted metabolomics of hES cell spent media, single concentration (ornithine, cystine, o/c ratio); type: cell-based, human; conditions: for Cystine abundance relative to the reference treatment / Ornithine abundance relative to the reference treatment: Phase 1, spent media, 72 hours, reference 0.1% DMSO; for Cystine abundance relative to the reference treatment: Cmax exposure (IC30 for hydroxyurea); for Ornithine abundance relative to the reference treatment: Cmax or IC30 exposure
Procedure: Undifferentiated hES Cell Line Maintenance (Phases 1 and 2).
96-well hES Cell Plating (Phases 1 and 2). […] Compound exposure began 24 hours after plating.
Sample Preparation (Phases 1 and 2).
Phase 1 Mass Spectrometry. LC-HRMS data was acquired for nine biological replications on three separate LC-HRMS systems with three replications evaluated on each system. Each system consisted of an Agilent 1290 Infinity LC system interfaced either with an Agilent G6520A QTOF high resolution mass spectrometer (QTOF HRMS), an Agilent G6530A QTOF HRMS, or an Agilent G6224A TOF HRMS system (Agilent Technologies, Santa Clara, Calif.). To facilitate separation of biological small molecules with a wide range of structures and to allow increased retention of hydrophilic species, Hydrophilic Interaction Liquid Chromatography (HILIC) was utilized. A Luna HILIC column (Phenomenex, Torrance, Calif.) with dimensions 3×100 mm and 3 μm particle size was used and maintained at 30° C. […] Electrospray ionization was employed using a dual ESI source. The scan range of the instrument was 70-1600 Da. Data acquisition was performed with MassHunter Acquisition software (version B 04.00, Agilent Technologies) using high-resolution exact mass conditions and each set of samples was run first under ESI positive polarity then under ESI negative polarity conditions.
Peak Detection (Phases 1 and 2). […] Mass features (peaks) were detected using the centwave algorithm.
Ornithine/Cystine Ratio Calculation.
Teratogenicity Threshold Selection (Phases 1 and 2).
Phase 1 Prediction of Developmental Toxicity Potential. A test compound was classified as a developmental toxicant if the mean of the change in the abundance in the treated sample compared to the reference treatment (DMSO) across the nine experimental replications for either metabolite or the o/c ratio exceeded its respective teratogenicity threshold at the concentration tested. The predictive accuracy (correct prediction), sensitivity (true positive rate), and specificity (true negative rate) were based on scoring the predicted result (teratogen or non-teratogen) against the known human teratogenicity of the compound.

WA09 hES cells [2] = conditions: for Teratogenicity Potential (μM) Cell Viability: human, 72 h
Humans = conditions: cited from earlier work; for Humans (known human developmental toxicity): training and test set; for Known Effect: validation and test set treatments of Example 2
Rodent = conditions: cited from earlier work; for Rodent prediction: training and test set
[3] = tested on: mouse embryonic stem cell; conditions: training and test set; weak/moderate and strong teratogens both labeled teratogen; cited from earlier work

Compound	Cystine abundance relative to the reference treatment (WA09 hES cells [1])	Ornithine abundance relative to the reference treatment (WA09 hES cells [1])	Viability Prediction (WA09 hES cells [2])	Teratogenicity Potential (μM) Cell Viability (WA09 hES cells [2]) [µM]	Humans (known human developmental toxicity) (Humans)	Known Effect (Humans)	Rodent prediction (Rodent)	mEST prediction [3]	Classification by o/c ratio in Phase 1 (WA09 hES cells [1]; teratogenicity threshold of a 12% decrease in the o/c ratio, single concentration)	Rodent developmental toxicity testing, result in words (Rodent; relation to maternal toxicity where stated)
CC1=C(/C=C/C(C)=C/C=C/C(C)=C\C(=O)O)C(C)(C)CCC1 [13-cis Retinoic Acid]	significant increase in abundance	increased	NON	>300	TER	Ter	TER	TER^p		
NC(=O)N1c2ccccc2C=Cc2ccccc21 [Carbamazepine]	significant increase in abundance		NON	>300	TER	Ter	TER	TER^i		
O=C1NC(=O)C(c2ccccc2)(c2ccccc2)N1 [Diphenylhydantoin]			NON	288.7	TER	Ter	TER	TER^b,i	misclassifying	
O=C1CCC(N2C(=O)c3ccccc3C2=O)C(=O)N1 (stereo not shown) [Thalidomide]	significant increase in abundance		NON	>300	TER	Ter	NON^a			did not indicate the compound's teratogenic potential in humans
CC1=C(/C=C/C(C)=C/C=C/C(C)=C/C(=O)O)C(C)(C)CCC1 [All-trans Retinoic Acid]	significant increase in abundance	increased	NON	114.5	TER	Ter	TER	TER^b,p		
